{"source": "patent US20030004154A1", "about": "“New crystal forms of oxcarbazepine and processes for their preparation” (priority 2001, published 2003)", "key": {"[1]": {"system": "voltage sensitive sodium channels", "details": "in vitro studies; cited from earlier work"}, "[2]": {"details": "cited from earlier work"}, "[3]": {"assay": "Solid form after heating, analyzed by PXRD", "format": "physicochemical", "experimental": "The present invention also provides for processes that convert one form of oxcarbazepine into another form of oxcarbazepine. Form A may be obtained by heating oxcarbazepine solvate Form E at elevated temperatures between 40° C. and 80° C., preferably 60° C., for a period of 2 hours to 10 hours, preferably 4 hours. One skilled in the art may appreciate that Form E may transform to Form A under different conditions, and that the optimal conditions may be discovered with routine experimentation. The present invention also provides a process for transforming Form B to Form A. At about ambient temperature, Form B transforms to Form C. One skilled in the art would appreciate that such a transition may also occur at temperatures above and below ambient temperature, and that by routine experimentation the boundary of the temperature range may be determined. At higher temperatures, between 60° C. and 120° C., preferably 60° C., a transformation from form B to form A occurs after a few hours, as determined by the temperature. The temperature at which Form B transforms to Form A rather than Form C may be determined by routine experimentation. One skilled in the art may appreciate that the rate and extent of the transformation varies with the conditions and the amount of time under which the transformation occurs. […] FTIR spectra were recorded using Nicolet Avatar 360 spectrometer. […]"}, "[4]": {"assay": "Solid form after slurry in protic solvent, analyzed by PXRD", "format": "physicochemical", "experimental": "One skilled in the art may appreciate that other protic solvents may be used and the optimal conditions may be determined through routine experimentation. The characterization of crystalline phases were performed using Phillips PW 1710 Diffractometer. Thermograviometric analysis (TGA) was produced using Mettler TG50 equipped with Mettler TC11 TA processor. Differential Scanning calorimetry (DSC) was performed using Mettler DSC 30 apparatus. FTIR spectra were recorded using Nicolet Avatar 360 spectrometer. Oxcarbazepine Form B was suspended in ethanol for 24 hours. The product was analyzed by PXRD and determined to be Form A. Oxcarbazepine Form C was suspended in ethanol for 24 hours. The product was analyzed by PXRD and determined to be Form A. Oxcarbazepine Form D was suspended in water for 24 hours. The product is analyzed by PXRD and is determined to be Form A."}, "[5]": {"assay": "Solid form after storage at ambient temperature, analyzed by PXRD", "format": "physicochemical", "details": "stored at ambient temperature (about 20 to 30° C.; gradual, may occur over several months)", "experimental": "The present invention also provides a process for transforming Form B to Form C. […] The transformation is gradual and prolonged, and may occur over several months. One skilled in the art may appreciate that the optimal conditions and time for transformation may be discovered through routine experimentation. The characterization of crystalline phases were performed using Phillips PW 1710 Diffractometer. Thermograviometric analysis (TGA) was produced using Mettler TG50 equipped with Mettler TC11 TA processor. Differential Scanning calorimetry (DSC) was performed using Mettler DSC 30 apparatus. FTIR spectra were recorded using Nicolet Avatar 360 spectrometer. Oxcarbazepine Form B was stored at an ambient temperature. The resulting material was analyzed by PXRD and found to be Form C."}}, "note": "Like-named read-outs stand apart in the source and are kept apart here.", "data": [{"smiles": "NC(=O)N1c2ccccc2CC(O)c2ccccc21", "note": "(centres unmarked) [10-hydroxy metabolite of oxcarbazepine]", "values": [{"measurement": "effect on voltage sensitive sodium channels", "setting": "[1]", "result": "blocks voltage sensitive sodium channels"}]}, {"smiles": "NC(=O)N1c2ccccc2CC(=O)c2ccccc21", "note": "[Oxcarbazepine Form A, 10-oxo-10,11-dihydro-5H-dibenz[b, f]azepine-5-carboxamide]", "values": [{"measurement": "solubility", "setting": "[2]; solvents ethanol, ether and water", "result": "practically insoluble"}, {"measurement": "solubility", "setting": "[2]; solvents such as chloroform, dichloromethane, acetone and methanol", "result": "slightly soluble"}]}, {"smiles": "NC(=O)N1c2ccccc2CC(=O)c2ccccc21", "note": "[Oxcarbazepine Form B, 10-oxo-10,11-dihydro-5H-dibenz[b, f]azepine-5-carboxamide]", "values": [{"measurement": "crystal form found by PXRD after heating (solid-state stability)", "setting": "[3]; heated to about 60° C., maintained for five hours", "result": "Form A"}, {"measurement": "crystal form found by PXRD after suspension in solvent (solid-state stability)", "setting": "[4]; suspended in ethanol for 24 hours", "result": "Form A"}, {"measurement": "crystal form found by PXRD after storage (solid-state stability)", "setting": "[5]", "result": "Form C"}]}, {"smiles": "NC(=O)N1c2ccccc2CC(=O)c2ccccc21", "note": "[Oxcarbazepine Form D, 10-oxo-10,11-dihydro-5H-dibenz[b, f]azepine-5-carboxamide]", "values": [{"measurement": "crystal form found by PXRD after suspension in solvent (solid-state stability)", "setting": "[4]; suspended in water for 24 hours", "result": "Form A"}]}, {"smiles": "NC(=O)N1c2ccccc2CC(=O)c2ccccc21", "note": "[Oxcarbazepine solvate Form E, 10-oxo-10,11-dihydro-5H-dibenz[b, f]azepine-5-carboxamide]", "values": [{"measurement": "crystal form found by PXRD after heating (solid-state stability)", "setting": "[3]; heated to 60° C., maintained for 4 hours", "result": "Form A"}]}]}
